Converted amounts (≈) assume the structure as drawn.
Experiments:
Pseudomonas aeruginosa [1] = test: Antibacterial activity against Pseudomonas aeruginosa PAO1 assessed as inhibition of bacterial growth incubated for 24 hrs by broth microdilution method; assay type: functional; details: read-out: MIC100
Escherichia coli [2] = test: Antibacterial activity against Escherichia coli assessed as inhibition of bacterial growth incubated for 24 hrs by broth microdilution method; assay type: functional; details: read-out: MIC100
Klebsiella pneumoniae [3] = test: Antibacterial activity against Klebsiella pneumoniae assessed as inhibition of bacterial growth incubated for 24 hrs by broth microdilution method; assay type: functional; details: read-out: MIC100
Acinetobacter baumannii [4] = test: Antibacterial activity against Acinetobacter baumannii assessed as inhibition of bacterial growth incubated for 24 hrs by broth microdilution method; assay type: functional; details: read-out: MIC100
Pseudomonas aeruginosa [5] = test: Antibacterial activity against Pseudomonas aeruginosa assessed as inhibition of bacterial growth incubated for 24 hrs by broth microdilution method; assay type: functional; details: read-out: MIC100
Moraxella catarrhalis [6] = test: Antibacterial activity against Moraxella catarrhalis assessed as inhibition of bacterial growth incubated for 24 hrs by broth microdilution method; assay type: functional; details: read-out: MIC100
HK-2 = test: Cytotoxicity against human HK-2 cells assessed as cell viability incubated for 72 hrs by CCK-8 assay; assay type: cell-based; details: hk-2, 72 h
Escherichia coli [7] = test: Antibacterial activity against Escherichia coli ECO+14-2 assessed as inhibition of bacterial growth incubated for 24 hrs by broth microdilution method; assay type: functional; details: read-out: MIC100
Escherichia coli [8] = test: Antibacterial activity against Escherichia coli ECO+14-3 assessed as inhibition of bacterial growth incubated for 24 hrs by broth microdilution method; assay type: functional; details: read-out: MIC100
Escherichia coli [9] = test: Antibacterial activity against Escherichia coli ECO-14-2 assessed as inhibition of bacterial growth incubated for 24 hrs by broth microdilution method; assay type: functional; details: read-out: MIC100
Klebsiella pneumoniae [10] = test: Antibacterial activity against Klebsiella pneumoniae KPN+14-8 assessed as inhibition of bacterial growth incubated for 24 hrs by broth microdilution method; assay type: functional; details: read-out: MIC100
Klebsiella pneumoniae [11] = test: Antibacterial activity against Klebsiella pneumoniae KPN+14-10 assessed as inhibition of bacterial growth incubated for 24 hrs by broth microdilution method; assay type: functional; details: read-out: MIC100
Klebsiella pneumoniae [12] = test: Antibacterial activity against Klebsiella pneumoniae KR15-2 assessed as inhibition of bacterial growth incubated for 24 hrs by broth microdilution method; assay type: functional; details: read-out: MIC100
Acinetobacter baumannii [13] = test: Antibacterial activity against Acinetobacter baumannii ABA15-4 assessed as inhibition of bacterial growth incubated for 24 hrs by broth microdilution method; assay type: functional; details: read-out: MIC100
Acinetobacter baumannii [14] = test: Antibacterial activity against Acinetobacter baumannii ABA15-5 assessed as inhibition of bacterial growth incubated for 24 hrs by broth microdilution method; assay type: functional; details: read-out: MIC100
Acinetobacter baumannii [15] = test: Antibacterial activity against Acinetobacter baumannii ABA15-6 assessed as inhibition of bacterial growth incubated for 24 hrs by broth microdilution method; assay type: functional; details: read-out: MIC100
Acinetobacter baumannii [16] = test: Antibacterial activity against Acinetobacter baumannii AR15-4 assessed as inhibition of bacterial growth incubated for 24 hrs by broth microdilution method; assay type: functional; details: read-out: MIC100
Pseudomonas aeruginosa [17] = test: Antibacterial activity against Pseudomonas aeruginosa PAE15-3 assessed as inhibition of bacterial growth incubated for 24 hrs by broth microdilution method; assay type: functional; details: read-out: MIC100
Pseudomonas aeruginosa [18] = test: Antibacterial activity against Pseudomonas aeruginosa PAE15-5 assessed as inhibition of bacterial growth incubated for 24 hrs by broth microdilution method; assay type: functional; details: read-out: MIC100
Pseudomonas aeruginosa [19] = test: Antibacterial activity against Pseudomonas aeruginosa PAE15-8 assessed as inhibition of bacterial growth incubated for 24 hrs by broth microdilution method; assay type: functional; details: read-out: MIC100
Pseudomonas aeruginosa [20] = test: Antibacterial activity against Pseudomonas aeruginosa PAE15-14 assessed as inhibition of bacterial growth incubated for 24 hrs by broth microdilution method; assay type: functional; details: read-out: MIC100
Pseudomonas aeruginosa [21] = test: Antibacterial activity against Pseudomonas aeruginosa PR15-1 assessed as inhibition of bacterial growth incubated for 24 hrs by broth microdilution method; assay type: functional; details: read-out: MIC100
Pseudomonas aeruginosa [22] = test: Antibacterial activity against Pseudomonas aeruginosa ATCC 27853 assessed as inhibition of bacterial growth incubated for 24 hrs by broth microdilution method; assay type: functional; details: read-out: MIC100
Moraxella catarrhalis [23] = test: Antibacterial activity against Moraxella catarrhalis BCA14-7 assessed as inhibition of bacterial growth incubated for 24 hrs by broth microdilution method; assay type: functional; details: read-out: MIC100
Moraxella catarrhalis [24] = test: Antibacterial activity against Moraxella catarrhalis BCA15-3 assessed as inhibition of bacterial growth incubated for 24 hrs by broth microdilution method; assay type: functional; details: read-out: MIC100

Row | SMILES | MIC (Pseudomonas aeruginosa [1]) | MIC (Escherichia coli [2]) | MIC (Klebsiella pneumoniae [3]) | MIC (Acinetobacter baumannii [4]) | MIC (Pseudomonas aeruginosa [5]) | MIC (Moraxella catarrhalis [6]) | Activity (HK-2) | MIC (Escherichia coli [7]) | MIC (Escherichia coli [8]) | MIC (Escherichia coli [9]) | MIC (Klebsiella pneumoniae [10]) | MIC (Klebsiella pneumoniae [11]) | MIC (Klebsiella pneumoniae [12]) | MIC (Acinetobacter baumannii [13]) | MIC (Acinetobacter baumannii [14]) | MIC (Acinetobacter baumannii [15]) | MIC (Acinetobacter baumannii [16]) | MIC (Pseudomonas aeruginosa [17]) | MIC (Pseudomonas aeruginosa [18]) | MIC (Pseudomonas aeruginosa [19]) | further results
1 | CCCCCCCC(=O)N[C@@H](CCN)C(=O)N[C@H](C(=O)N[C@@H](CCN)C(=O)N[C@H]1CCNC(=O)[C@H](Cc2ccccc2)NC(=O)[C@H](CCN)NC(=O)[C@H](CCN)NC(=O)[C@H](CC(C)C)NC(=O)[C@@H](Cc2ccccc2)NC(=O)[C@H](CCN)NC1=O)[C@@H](C)O | 4 µg/mL (≈ 3.24 µM) | 2 µg/mL (≈ 1.62 µM) | 2 µg/mL (≈ 1.62 µM) | 0.06 µg/mL (≈ 0.0486 µM) | 0.25 µg/mL (≈ 0.202 µM) | 2 µg/mL (≈ 1.62 µM) | Non-Toxic | – | – | – | – | – | – | – | – | – | – | – | – | – | –
2 | CC(C)CCCCC(=O)N[C@@H](CCN)C(=O)N[C@H](C(=O)N[C@@H](CCN)C(=O)N[C@H]1CCNC(=O)[C@H]([C@@H](C)O)NC(=O)[C@H](CCN)NC(=O)[C@H](CCN)NC(=O)[C@H](CC(C)C)NC(=O)[C@@H](Cc2ccccc2)NC(=O)[C@H](CCN)NC1=O)[C@@H](C)OC(=O)[C@@H]1CCCN1 | 1 µg/mL (≈ 0.777 µM) | 0.06 µg/mL (≈ 0.0466 µM) | 0.5 µg/mL (≈ 0.389 µM) | – | 0.03 µg/mL (≈ 0.0233 µM) | > 32 µg/mL | Non-Toxic | 0.5 µg/mL (≈ 0.389 µM) | 0.125 µg/mL (≈ 0.0972 µM) | 0.06 µg/mL (≈ 0.0466 µM) | 1 µg/mL (≈ 0.777 µM) | 0.5 µg/mL (≈ 0.389 µM) | 0.5 µg/mL (≈ 0.389 µM) | 0.03 µg/mL (≈ 0.0233 µM) | 0.03 µg/mL (≈ 0.0233 µM) | < 0.015 µg/mL | 0.03 µg/mL (≈ 0.0233 µM) | 0.5 µg/mL (≈ 0.389 µM) | 0.25 µg/mL (≈ 0.194 µM) | 0.5 µg/mL (≈ 0.389 µM) | MIC (Pseudomonas aeruginosa [20]): 0.25 µg/mL (≈ 0.194 µM); MIC (Pseudomonas aeruginosa [21]): 0.25 µg/mL (≈ 0.194 µM); MIC (Pseudomonas aeruginosa [22]): 0.03 µg/mL (≈ 0.0233 µM); MIC (Moraxella catarrhalis [23]): 32 µg/mL (≈ 24.9 µM); MIC (Moraxella catarrhalis [24]): 1 µg/mL (≈ 0.777 µM)
3 | CC[C@H](C)CCCCC(=O)N[C@@H](CCN)C(=O)N[C@H](C(=O)N[C@@H](CCN)C(=O)N[C@H]1CCNC(=O)[C@H]([C@@H](C)OC(=O)[C@@H](N)CCCCN)NC(=O)[C@H](CCN)NC(=O)[C@H](CCN)NC(=O)[C@H](CC(C)C)NC(=O)[C@@H](Cc2ccccc2)NC(=O)[C@H](CCN)NC1=O)[C@@H](C)OC(=O)[C@@H](N)CCCCN | 4 µg/mL (≈ 2.74 µM) | – | – | – | – | – | Non-Toxic | – | – | – | – | – | – | – | – | – | – | – | – | – | –
4 | CCCCCCCC(=O)N[C@@H](CCN)C(=O)N[C@H](C(=O)N[C@@H](CCN)C(=O)N[C@H]1CCNC(=O)[C@H](CCC(N)=O)NC(=O)[C@H](CCN)NC(=O)[C@H](CCN)NC(=O)[C@H](CC(C)C)NC(=O)[C@@H](Cc2ccccc2)NC(=O)[C@H](CCN)NC1=O)[C@@H](C)O | 32 µg/mL (≈ 26.3 µM) | – | – | – | – | – | Non-Toxic | – | – | – | – | – | – | – | – | – | – | – | – | – | –
5 | CC[C@H](C)CCCCC(=O)N[C@@H](CCN)C(=O)N[C@H](C(=O)N[C@@H](CCN)C(=O)N[C@H]1CCNC(=O)[C@H]([C@@H](C)O)NC(=O)[C@H](CCN)NC(=O)[C@H](CCN)NC(=O)[C@H](CC(C)C)NC(=O)[C@@H](Cc2ccccc2)NC(=O)[C@H](CCN)NC1=O)[C@@H](C)OC(=O)[C@@H](N)Cc1ccc(O)cc1 | 1 µg/mL (≈ 0.732 µM) | 0.25 µg/mL (≈ 0.183 µM) | 2 µg/mL (≈ 1.46 µM) | 0.03 µg/mL (≈ 0.022 µM) | 0.125 µg/mL (≈ 0.0915 µM) | > 32 µg/mL | – | 2 µg/mL (≈ 1.46 µM) | 0.25 µg/mL (≈ 0.183 µM) | 0.25 µg/mL (≈ 0.183 µM) | 4 µg/mL (≈ 2.93 µM) | 2 µg/mL (≈ 1.46 µM) | 4 µg/mL (≈ 2.93 µM) | 0.06 µg/mL (≈ 0.0439 µM) | 0.06 µg/mL (≈ 0.0439 µM) | 0.03 µg/mL (≈ 0.022 µM) | 0.125 µg/mL (≈ 0.0915 µM) | 0.5 µg/mL (≈ 0.366 µM) | 0.25 µg/mL (≈ 0.183 µM) | 0.5 µg/mL (≈ 0.366 µM) | MIC (Pseudomonas aeruginosa [20]): 0.25 µg/mL (≈ 0.183 µM); MIC (Pseudomonas aeruginosa [21]): 0.5 µg/mL (≈ 0.366 µM); MIC (Pseudomonas aeruginosa [22]): 0.125 µg/mL (≈ 0.0915 µM); MIC (Moraxella catarrhalis [23]): 32 µg/mL (≈ 23.4 µM); MIC (Moraxella catarrhalis [24]): 1 µg/mL (≈ 0.732 µM)
6 | CC[C@H](C)CCCCC(=O)N[C@@H](CCN)C(=O)N[C@H](C(=O)N[C@@H](CCN)C(=O)N[C@H]1CCNC(=O)[C@H]([C@@H](C)O)NC(=O)[C@H](CCN)NC(=O)[C@H](CCN)NC(=O)[C@H](CC(C)C)NC(=O)[C@@H](Cc2ccccc2)NC(=O)[C@H](CCN)NC1=O)[C@@H](C)OC(=O)[C@@H](N)CC(=O)O | 2 µg/mL (≈ 1.52 µM) | 0.25 µg/mL (≈ 0.19 µM) | 0.5 µg/mL (≈ 0.379 µM) | 0.125 µg/mL (≈ 0.0948 µM) | 0.25 µg/mL (≈ 0.19 µM) | > 32 µg/mL | Non-Toxic | – | – | – | – | – | – | – | – | – | – | – | – | – | –

Source: ChEMBL document CHEMBL4825673, “Total and Semisyntheses of Polymyxin Analogues with 2-Thr or 10-Thr Modifications to Decipher the Structure-Activity Relationship and Improve the Antibacterial Activity” (J Med Chem, 2021)
